Key:
human MER (528-end) = human MER (528-end) (Homo sapiens (Human), UniProt Q12866); test: HTRF Kinase Activity Biochemical Assay (KinEASE-TK); details: 10 uM ATP
In short: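 Activity read-out is the HTRF ratio (665 nm over 620 nm emission, ×10,000; excitation 340 nm) after 1 h detection with 0.375 nM Eu3+-cryptate anti-TK antibody plus 0.062 uM SA-XL665. Preceding kinase step: human MER (528-end), biotinylated TK substrate, 1 h, room temperature.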

[1] = biological target: BCR fusion to kinase domain of MerTK (Ba/F3-MerTK) (Homo sapiens, UniProt Q12866); test: In Cell TAM Kinase Assay Using BaF3 Cellular System; format: cell-based, murine; details: Ba/F3 BCR-kinase fusion proliferation, 72 hours, Cell Titer Glo; kinase not given; read-out: IC50
Description: Three Ba/F3 cell lines (a murine IL-3 dependent pro-B cell line) expressing BCR fusions to the kinase domains of either MerTK (Ba/F3-MerTK), Axl (Ba/F3-Axl), or Tyro3 (Ba/F3-Tyro3) were purchased from Advanced Cellular Dynamics. The IL-3 independence of all 3 cell lines was confirmed. After thawing, the 3 Ba/F3 cell lines were split and maintained in cell culture media, which consisted of RPMI-1640-HEPES (Thermo-Cat #22400-089) with 1× Glutamax (Thermo-Cat #35050-061) and 10% FBS (Sigma-Cat #F4135 (500 ml), at a cell density range of 0.05×10^6−1×10^6 cells/mL 4 days before used in the routine screen. Compound plates were prepared using Nunc™ white 384-well optical bottom plates (ThermoFisher, USA) with compound in 25 nL dimethyl sulfoxide in each well. For routine assays, each of the 3 Ba/F3 cell lines was seeded at 1,000 cells per well with 25 µL of cell culture media directly into 384-well compound plates and incubated for 72 hours. Cell proliferation was then measured by adding 25 μL of Cell Titer Glo 2.0 (Promega, USA). After incubating with Cell Titer Glo at room temperature for 30 mins, the luminescence intensity, which quantifies the cell viability, was measured using an Envision™ plate reader (PerkinElmer, USA). […] In the presence of IL-3, the proliferation of the Ba/F3-Tyro3 cells is no longer dependent on the Tyro3 kinase activity.

[2] = biological target: human c-MER catalytic domain (Homo sapiens (Human), UniProt Q12866); test: TR-FRET Kinase Activity Biochemical Assay (LanthaScreen); details: 10 uM ATP, 1 hour, kinase not given
In short: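 Activity was quantified as the ratio of 495 nm to 520 nm emission (excitation 340 nm) in a LanthaScreen TR-FRET format. The enzyme was the human c-MER catalytic domain, and the substrate was fluorescein-poly-GT. Detection used 2 nM Tb anti-phosphotyrosine antibody for 30 min after termination with 10 mM EDTA.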

Chain of human MER (528-end) (Q12866 528-999 limits assumed): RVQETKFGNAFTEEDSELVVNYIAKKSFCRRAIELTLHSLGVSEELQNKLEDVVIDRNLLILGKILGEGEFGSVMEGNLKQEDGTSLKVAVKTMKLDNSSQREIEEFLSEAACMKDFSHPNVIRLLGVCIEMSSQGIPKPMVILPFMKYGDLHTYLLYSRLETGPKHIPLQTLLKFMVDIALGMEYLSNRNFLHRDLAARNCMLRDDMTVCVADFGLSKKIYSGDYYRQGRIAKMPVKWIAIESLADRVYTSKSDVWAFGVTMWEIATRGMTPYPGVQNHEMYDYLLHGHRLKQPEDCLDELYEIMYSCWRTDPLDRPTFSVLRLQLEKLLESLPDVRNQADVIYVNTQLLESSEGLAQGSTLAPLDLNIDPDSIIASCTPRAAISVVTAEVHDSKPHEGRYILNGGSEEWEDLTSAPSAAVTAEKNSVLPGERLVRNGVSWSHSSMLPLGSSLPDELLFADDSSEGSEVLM
Chain of BCR fusion to kinase domain of MerTK (Ba/F3-MerTK) (Q12866 21-999 limits assumed, stated change not applied): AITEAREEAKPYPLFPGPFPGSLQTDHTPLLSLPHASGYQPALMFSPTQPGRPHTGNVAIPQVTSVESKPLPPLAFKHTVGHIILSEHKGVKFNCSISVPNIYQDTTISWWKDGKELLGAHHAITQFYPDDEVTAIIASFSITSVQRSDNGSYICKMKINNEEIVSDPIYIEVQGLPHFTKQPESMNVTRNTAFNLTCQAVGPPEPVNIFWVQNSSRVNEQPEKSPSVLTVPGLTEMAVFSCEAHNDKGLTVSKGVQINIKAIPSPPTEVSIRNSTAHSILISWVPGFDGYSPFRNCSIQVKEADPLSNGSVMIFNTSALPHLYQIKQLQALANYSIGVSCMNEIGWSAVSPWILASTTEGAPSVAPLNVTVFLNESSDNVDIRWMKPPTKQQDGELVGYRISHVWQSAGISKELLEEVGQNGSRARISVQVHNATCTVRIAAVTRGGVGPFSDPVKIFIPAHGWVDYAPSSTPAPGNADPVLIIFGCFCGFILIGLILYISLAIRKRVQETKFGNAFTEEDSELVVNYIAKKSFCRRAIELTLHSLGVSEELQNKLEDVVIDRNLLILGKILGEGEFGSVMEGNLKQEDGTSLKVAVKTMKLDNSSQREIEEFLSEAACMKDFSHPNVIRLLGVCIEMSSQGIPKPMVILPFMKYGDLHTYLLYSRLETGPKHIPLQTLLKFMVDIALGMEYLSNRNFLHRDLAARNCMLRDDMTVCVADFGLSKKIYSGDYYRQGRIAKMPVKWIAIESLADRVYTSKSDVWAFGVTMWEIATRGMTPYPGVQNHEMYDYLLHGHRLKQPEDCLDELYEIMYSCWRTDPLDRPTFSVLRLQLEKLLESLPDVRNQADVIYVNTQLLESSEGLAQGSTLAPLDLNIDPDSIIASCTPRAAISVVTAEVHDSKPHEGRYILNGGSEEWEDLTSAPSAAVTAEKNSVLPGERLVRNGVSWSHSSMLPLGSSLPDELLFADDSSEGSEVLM
Chain of human c-MER catalytic domain (Q12866 587-858): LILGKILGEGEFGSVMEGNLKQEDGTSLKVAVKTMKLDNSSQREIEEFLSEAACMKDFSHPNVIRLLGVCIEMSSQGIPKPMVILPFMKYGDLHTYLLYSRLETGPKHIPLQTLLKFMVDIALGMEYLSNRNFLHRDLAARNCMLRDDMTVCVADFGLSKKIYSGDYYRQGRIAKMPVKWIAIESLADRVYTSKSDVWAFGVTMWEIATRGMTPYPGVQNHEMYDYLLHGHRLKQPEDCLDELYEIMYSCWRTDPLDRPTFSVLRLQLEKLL

Compound `Cn1cc(-c2cnc(N)c(C(=O)N[C@@H]3CCN(C(=O)OC4CCCC(c5ccccc5)C4)C3)c2)cn1` (stereo partly drawn) [Example 129, 3-phenylcyclohexyl (3R)-3-(2-amino-5-(1-methyl-1H-pyrazol-4-yl)nicotinamido)pyrrolidine-1-carboxylate] has an IC50 (human MER (528-end)) greater than 1000 nM and an IC50 [1] of 100 to 500 nM.
In the case of `Cn1cc(-c2cnc(N)c(C(=O)N[C@@H]3CCN(C(=O)c4ccc(-c5ccc(F)cc5F)cc4)C3)c2)cn1` [Example 365, (R)-2-amino-N-(1-(2′,4′-difluoro-[1,1′-biphenyl]-4-carbonyl)pyrrolidin-3-yl)-5-(1-methyl-1H-pyrazol-4-yl)nicotinamide], the IC50 (human MER (528-end)) is reported as 10 to 100 nM and the IC50 [1] is reported as greater than 1000 nM.
Work on `Cn1cc(-c2cnc(N)c(C(=O)N[C@@H]3CCN(C(=O)c4ccc(-c5ccc(F)cc5Cl)cc4)C3)c2)cn1` [Example 366, (R)-2-amino-N-(1-(2′-chloro-4′-fluoro-[1,1′-biphenyl]-4-carbonyl)pyrrolidin-3-yl)-5-(1-methyl-1H-pyrazol-4-yl)nicotinamide] yielded an IC50 (human MER (528-end)) of 10 to 100 nM and an IC50 [1] of 100 to 500 nM.
`Cn1cc(-c2cnc(N)c(C(=O)N[C@@H]3CCN(C(=O)c4ccc(-c5ccccc5F)cc4)C3)c2)cn1` [Example 370, (R)-2-amino-N-(1-(2′-fluoro-[1,1′-biphenyl]-4-carbonyl)pyrrolidin-3-yl)-5-(1-methyl-1H-pyrazol-4-yl)nicotinamide] gave an IC50 (human MER (528-end)) of 10 to 100 nM and an IC50 [1] greater than 1000 nM.
Work on `Cn1cc(-c2cnc(N)c(C(=O)N[C@@H]3CCN(C(=O)c4ccc(-c5ccc(C=O)cc5)cc4)C3)c2)cn1` [Example 381, (R)-2-amino-N-(1-(4′-formyl-[1,1′-biphenyl]-4-carbonyl)pyrrolidin-3-yl)-5-(1-methyl-1H-pyrazol-4-yl)nicotinamide] yielded an IC50 (human MER (528-end)) of 100 to 1000 nM and an IC50 [1] greater than 1000 nM.
In the case of `Cn1cc(-c2cnc(N)c(C(=O)N[C@@H]3CCN(C(=O)c4ccc(-c5ccc(Oc6ccc(N)cc6)cc5)cc4)C3)c2)cn1` [Example 505, (R)-2-amino-N-(1-(4′-(4-aminophenoxy)-[1,1′-biphenyl]-4-carbonyl)pyrrolidin-3-yl)-5-(1-methyl-1H-pyrazol-4-yl)nicotinamide], the IC50 (human MER (528-end)) is reported as 100 to 1000 nM and the IC50 [1] is reported as greater than 1000 nM.
Work on `Cc1cscc1-c1ccc(C(=O)N2CC[C@@H](NC(=O)c3cc(-c4cnn(C)c4)cnc3N)C2)cc1` [Example 523, (R)-2-amino-5-(1-methyl-1H-pyrazol-4-yl)-N-(1-(4-(4-methylthiophen-3-yl)benzoyl)pyrrolidin-3-yl)nicotinamide] yielded an IC50 (human MER (528-end)) of 10 to 100 nM and an IC50 [1] of 500 to 1000 nM.
With `Cn1cc(-c2cnc(N)c(C(=O)N[C@@H]3CCN(C(=O)c4cccc(-c5cnn(S(=O)(=O)c6ccccc6)c5)c4)C3)c2)cn1` [Example 717, (R)-2-amino-5-(1-methyl-1H-pyrazol-4-yl)-N-(1-(3-(1-(phenylsulfonyl)-1H-pyrazol-4-yl)benzoyl)pyrrolidin-3-yl)nicotinamide] the IC50 [2] was greater than 1000 nM.
In the case of `Cn1cc(-c2cnc(N)c(C(=O)N[C@H]3CN(C(=O)c4ccc(Br)cc4)C[C@@H]3O)c2)cn1` [Example 732, 2-amino-N-((3S,4S)-1-(4-bromobenzoyl)-4-hydroxypyrrolidin-3-yl)-5-(1-methyl-1H-pyrazol-4-yl)nicotinamide], the IC50 [2] is reported as greater than 1000 nM.
In the case of `Cn1cc(-c2cnc(N)c(C(=O)N[C@H]3CN(C(=O)c4ccc(-c5ccccc5)cc4)C[C@@H]3O)c2)cn1` [Example 742, N-((3S,4S)-1-([1,1′-biphenyl]-4-carbonyl)-4-hydroxypyrrolidin-3-yl)-2-amino-5-(1-methyl-1H-pyrazol-4-yl)nicotinamide], the IC50 [2] is reported as 100 to 1000 nM.
With `Cn1cc(-c2cnc(N)c(C(=O)N[C@@H]3CN(C(=O)c4ccc(-c5ccccc5)cc4)C[C@@H]3O)c2)cn1` [Example 743, N-((3R,4S)-1-([1,1′-biphenyl]-4-carbonyl)-4-hydroxypyrrolidin-3-yl)-2-amino-5-(1-methyl-1H-pyrazol-4-yl)nicotinamide] the IC50 [2] was greater than 1000 nM.
With `Cn1cc(-c2cnc(N)c(C(=O)N[C@@H]3CCN(C(=O)c4ccc(-c5ccc(F)cc5Cl)cc4)C3)n2)cn1` [Example 745, (R)-3-amino-N-(1-(2′-chloro-4′-fluoro-[1,1′-biphenyl]-4-carbonyl)pyrrolidin-3-yl)-6-(1-methyl-1H-pyrazol-4-yl)pyrazine-2-carboxamide] the IC50 [2] was 10 to 100 nM.
Work on `Cn1cc(-c2cnc(N)c(C(=O)N[C@@H]3CCN(C(=O)c4ccc5cc(OCC6CCNCC6)ccc5c4)C3)c2)cn1` [Example 761] yielded an IC50 [1] greater than 1000 nM.
Work on `CN1CCN(c2cc(-c3cnc(N)c(C(=O)N[C@@H]4CCN(C(=O)c5ccc(-c6ccc(F)cc6Cl)cc5)C4)c3)ccn2)CC1` [Example 780, (R)-6-amino-N-(1-(2′-chloro-4′-fluoro-[1,1′-biphenyl]-4-carbonyl)pyrrolidin-3-yl)-2′-(4-methylpiperazin-1-yl) -[3,4′-bipyridine]-5-carboxamide] yielded an IC50 [2] of less than 10 nM.
`Nc1ncc(-c2ccc(N3CCOCC3)cc2)cc1C(=O)N[C@@H]1CCN(C(=O)c2ccc(-c3ccc(F)cc3Cl)cc2)C1` [Example 782, (R)-2-amino-N-(1-(2′-chloro-4′-fluoro-[1,1′-biphenyl]-4-carbonyl)pyrrolidin-3-yl)-5-(4-morpholinophenyl)nicotinamide] showed an IC50 [2] of 10 to 100 nM.
Work on `Cn1cc(-c2cnc3[nH]nc(N[C@@H]4CCN(C(=O)c5ccc(-c6ccc7c(c6)CCCN7)cc5)C4)c3c2)cn1` [Example 790, (R)-(3-((5-(1-methyl-1H-pyrazol-4-yl)-1H-pyrazolo[3,4-b]pyridin-3-yl)amino)pyrrolidin-1-yl)(4-(1,2,3,4-tetrahydroquinolin-6-yl)phenyl)methanone] yielded an IC50 [2] of 10 to 100 nM.
`Cn1cc(-c2cnc3[nH]nc(N[C@@H]4CCN(C(=O)c5ccc(Oc6ccccc6)cc5)C4)c3c2)cn1` [Example 791, (R)-(3-((5-(1-methyl-1H-pyrazol-4-yl)-1H-pyrazolo[3,4-b]pyridin-3-yl)amino)pyrrolidin-1-yl)(4-phenoxyphenyl)methanone] showed an IC50 [2] of 100 to 1000 nM.
In the case of `Cn1cc(-c2cnc3[nH]nc(N[C@@H]4CCN(C(=O)c5ccc(-c6ccc(OC7CCNCC7)cc6)cc5)C4)c3c2)cn1` [Example 792, (R)-(3-((5-(1-methyl-1H-pyrazol-4-yl)-1H-pyrazolo[3,4-b]pyridin-3-yl)amino)pyrrolidin-1-yl)(4′-(piperidin-4-yloxy)-[1,1′-biphenyl]-4-yl)methanone], the IC50 [2] is reported as less than 10 nM.
Work on `Cn1cc(-c2cnc3[nH]nc(N[C@@H]4CCN(C(=O)c5ccc(-c6ccc(CN7CCOCC7)cc6)cc5)C4)c3c2)cn1` [Example 793, (R)-(3-((5-(1-methyl-1H-pyrazol-4-yl)-1H-pyrazolo[3,4-b]pyridin-3-yl)amino)pyrrolidin-1-yl)(4′-(morpholinomethyl)-[1,1′-biphenyl]-4-yl)methanone] yielded an IC50 [2] of 100 to 1000 nM.
Work on `Cn1cc(-c2cnc(N)c(C(=O)N[C@@H]3CCN(C(=O)c4ccc(-c5ccc(C(C)(C)N)cc5)cc4)C3)c2)cn1` [Example 801, (R)-2-amino-N-(1-(4′-(2-aminopropan-2-yl)-[1,1′-biphenyl]-4-carbonyl)pyrrolidin-3-yl)-5-(1-methyl-1H-pyrazol-4-yl)nicotinamide] yielded an IC50 [2] of 100 to 1000 nM.
In the case of `Cn1cc(-c2cnc(N)c(C(=O)N[C@@H]3CCN(C(=O)c4ccc(-c5ccc(Nc6ccc(N)cc6)cc5)cc4)C3)c2)cn1` [Example 815, (R)-2-amino-N-(1-(4′-((4-aminophenyl)amino)-[1,1′-biphenyl]-4-carbonyl)pyrrolidin-3-yl)-5-(1-methyl-1H-pyrazol-4-yl)nicotinamide], the IC50 [2] is reported as 10 to 100 nM.
`CC(/C=C/c1ccc(C(=O)N2CC[C@@H](NC(=O)c3cc(-c4cnn(C)c4)cnc3N)C2)cc1)N1CCN(C)CC1` (stereo partly drawn) [Example 822, 2-amino-5-(1-methyl-1H-pyrazol-4-yl)-N-((3R)-1-(4-((E)-3-(4-methylpiperazin-1-yl)but-1-en-1-yl)benzoyl)pyrrolidin-3-yl)nicotinamide] was tested, and the IC50 [2] was less than 10 nM.
For `CN(C)CCCNc1ncc(-c2cnn(C)c2)cc1C(=O)N[C@@H]1CCN(C(=O)c2ccc(-c3ccc(OCCCN(C)C)cc3)cc2)C1` [Example 848, (R)—N-(1-(4′-(3-(dimethylamino)propoxy)-[1,1′-biphenyl]-4-carbonyl)pyrrolidin-3-yl)-2-((3-(dimethylamino)propyl)amino)-5-(1-methyl-1H-pyrazol-4-yl)nicotinamide], the IC50 [2] was 100 to 1000 nM.
“(R,E)-2-amino-5-(1-methyl-1H-pyrazol-4-yl)-N-(1-(4-(3-oxobut-1-en-1-yl)benzoyl)pyrrolidin-3-yl)nicotinamide [Example 681]” was tested, and the IC50 [2] was greater than 1000 nM.
